Values belong to the molecule of their own block, whether it stands above or below them. Active and inactive are the calls of the source. The calls are words filed in the database; no cut-off is given here.
Tests used:
[1] = AUC in cynomolgus monkey at 10 mg/kg, po; type: ADME, organism-based, Macaca fascicularis; design: dose 10 mg/kg; conditions: in vivo
[2] = AUC in Wistar rat at 1 mg/kg, iv; type: ADME, organism-based; design: dose 1 mg/kg; conditions: in vivo
[3] = Half life in Wistar rat at 1 mg/kg, iv; type: ADME, organism-based; conditions: in vivo
[4] = AUC in CD-1 mouse at 3 mg/kg, po; type: ADME, organism-based; design: dose 3 mg/kg; conditions: in vivo
[5] = target: T1, Peroxisome proliferator-activated receptor delta (Mus musculus) (UniProt P35396); experiment: Modulator activity at PPARdelta in […] primary myoblasts derived from DMD patient assessed as upregulation of ANGPTL4 gene expression at 0.04 nM measured after 48 hrs; type: tissue-based; conditions: Primary myotube
T1 sequence (whole entry): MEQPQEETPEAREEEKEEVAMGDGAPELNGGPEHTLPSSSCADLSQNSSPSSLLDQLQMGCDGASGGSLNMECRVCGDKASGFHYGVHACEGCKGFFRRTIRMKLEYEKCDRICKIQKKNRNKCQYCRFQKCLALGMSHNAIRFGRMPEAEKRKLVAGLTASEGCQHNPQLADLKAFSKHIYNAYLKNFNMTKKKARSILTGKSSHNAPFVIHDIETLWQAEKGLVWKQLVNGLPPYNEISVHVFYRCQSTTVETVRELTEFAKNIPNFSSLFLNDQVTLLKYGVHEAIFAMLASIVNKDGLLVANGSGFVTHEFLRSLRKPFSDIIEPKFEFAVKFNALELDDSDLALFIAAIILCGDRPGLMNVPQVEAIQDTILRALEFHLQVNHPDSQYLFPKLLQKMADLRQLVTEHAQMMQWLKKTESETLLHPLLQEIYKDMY

[6] = Half life in cynomolgus monkey at 3 mg/kg, iv; type: ADME, organism-based, Macaca fascicularis; conditions: in vivo
[7] = Half life in CD-1 mouse at 3 mg/kg, iv; type: ADME, organism-based; conditions: in vivo
[8] = Protein binding in mouse plasma; type: ADME, cell-free; conditions: read-out: PPB (converted)
[9] = Half life in CD-1 mouse at 3 mg/kg, po; type: ADME, organism-based; conditions: in vivo
[10] = AUC in CD-1 mouse at 3 mg/kg, iv; type: ADME, organism-based; design: dose 3 mg/kg; conditions: in vivo
[11] = Cmax in CD-1 mouse at 3 mg/kg, po; type: ADME, organism-based; design: route oral, dose 3 mg/kg; conditions: in vivo
[12] = Oral bioavailability in Wistar rat at 3 mg/kg; type: ADME, organism-based; conditions: in vivo
[13] = target: T1, Peroxisome proliferator-activated receptor delta (Mus musculus); experiment: Modulator activity at PPARdelta in […] primary myoblasts derived from DMD patient assessed as upregulation of PDK4 gene expression at 0.04 nM measured after 48 hrs; type: tissue-based; conditions: Primary myotube
[14] = Oral bioavailability in CD-1 mouse at 3 mg/kg; type: ADME, organism-based; conditions: in vivo
[15] = target: T1, Peroxisome proliferator-activated receptor delta (Mus musculus); experiment: Modulator activity at PPARdelta in […] primary myoblasts derived from DMD patient assessed as upregulation of ANGPTL4 gene expression at 0.4 nM measured after 48 hrs; type: tissue-based; conditions: Primary myotube, filed as modulator
[16] = Modulator activity at rat PPARdelta
[17] = Inhibition of CYP450 (unknown origin); type: ADME, Homo sapiens
[18] = target: T2, Peroxisome proliferator-activated receptor alpha (Homo sapiens, UniProt Q07869); experiment: Modulator activity at GAL4-fused human PPARalpha LBD (unknown origin) transfected in African green monkey CV1 cells assessed as receptor transactivation by luciferase reporter gene assay; type: cell-based, CV-1
T2 sequence (Q07869 whole entry): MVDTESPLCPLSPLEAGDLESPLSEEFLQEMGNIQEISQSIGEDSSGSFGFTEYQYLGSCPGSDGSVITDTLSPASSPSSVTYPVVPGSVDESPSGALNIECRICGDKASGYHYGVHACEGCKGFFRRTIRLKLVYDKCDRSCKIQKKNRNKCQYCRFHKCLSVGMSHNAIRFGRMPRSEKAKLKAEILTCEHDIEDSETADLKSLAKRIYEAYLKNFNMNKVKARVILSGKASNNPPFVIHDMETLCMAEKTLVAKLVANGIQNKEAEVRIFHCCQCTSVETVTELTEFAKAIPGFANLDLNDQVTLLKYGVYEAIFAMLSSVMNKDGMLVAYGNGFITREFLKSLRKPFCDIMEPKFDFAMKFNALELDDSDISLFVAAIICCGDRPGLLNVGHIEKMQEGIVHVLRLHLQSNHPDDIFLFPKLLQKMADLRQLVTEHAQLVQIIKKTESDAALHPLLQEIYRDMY

[19] = AUC in CD-1 mouse at 1 mg/kg, iv; type: ADME, organism-based; design: dose 1 mg/kg; conditions: in vivo
[20] = Volume of distribution at steady state in CD-1 mouse at 1 mg/kg, iv; type: ADME, organism-based; conditions: in vivo, read-out: Vdss
[21] = system: Mus musculus; experiment: In vivo modulator activity at PPARdelta in C57BL/6JRccHsd mouse skeletal muscle assessed as increase in Pdk4 gene expression at 30 to 100 mg/kg, po administered for 9 days and measured at 2 hrs after final administration by qPCR analysis; type: functional, organism-based; conditions: dose 30-100 mg/kg, time 9.0 day
[22] = Protein binding in rat plasma; type: ADME, cell-free; conditions: read-out: PPB (converted)
[23] = target: T3, Peroxisome proliferator-activated receptor delta (Mus musculus, UniProt P35396); experiment: Modulator activity at mouse PPARdelta
T3 sequence (P35396 whole entry): T1 sequence (whole entry)

[24] = Mutagenicity in Salmonella typhimurium by mini Ames test; type: toxicity; conditions: salmonella enterica subsp. enterica serovar typhimurium
[25] = Cmax in Wistar rat at 3 mg/kg, po; type: ADME, organism-based; design: route oral, dose 3 mg/kg; conditions: in vivo
[26] = Volume of distribution at steady state in Wistar rat at 1 mg/kg, iv; type: ADME, organism-based; conditions: in vivo, read-out: Vdss
[27] = Volume of distribution at steady state in cynomolgus monkey at 3 mg/kg, iv; type: ADME, organism-based, Macaca fascicularis; conditions: in vivo
[28] = Half life in cynomolgus monkey at 10 mg/kg, po; type: ADME, organism-based, Macaca fascicularis; conditions: in vivo
[29] = Clearance in Wistar rat at 1 mg/kg, iv; type: ADME, organism-based; conditions: in vivo
[30] = Cmax in cynomolgus monkey at 10 mg/kg, po; type: ADME, organism-based, Macaca fascicularis; design: route oral, dose 10 mg/kg; conditions: in vivo
[31] = AUC in cynomolgus monkey at 3 mg/kg, iv; type: ADME, organism-based, Macaca fascicularis; design: dose 3 mg/kg; conditions: in vivo
[32] = Permeability across apical to basolateral side in human Caco2 cells; type: ADME, cell-based; conditions: Caco-2, read-out: permeability
[33] = target: CYP2C9 (Homo sapiens, UniProt P11712); experiment: Inhibition of CYP2C9 (unknown origin) at 10 uM relative to control; type: ADME
CYP2C9, sequence (P11712 whole entry, the tested form may be a part): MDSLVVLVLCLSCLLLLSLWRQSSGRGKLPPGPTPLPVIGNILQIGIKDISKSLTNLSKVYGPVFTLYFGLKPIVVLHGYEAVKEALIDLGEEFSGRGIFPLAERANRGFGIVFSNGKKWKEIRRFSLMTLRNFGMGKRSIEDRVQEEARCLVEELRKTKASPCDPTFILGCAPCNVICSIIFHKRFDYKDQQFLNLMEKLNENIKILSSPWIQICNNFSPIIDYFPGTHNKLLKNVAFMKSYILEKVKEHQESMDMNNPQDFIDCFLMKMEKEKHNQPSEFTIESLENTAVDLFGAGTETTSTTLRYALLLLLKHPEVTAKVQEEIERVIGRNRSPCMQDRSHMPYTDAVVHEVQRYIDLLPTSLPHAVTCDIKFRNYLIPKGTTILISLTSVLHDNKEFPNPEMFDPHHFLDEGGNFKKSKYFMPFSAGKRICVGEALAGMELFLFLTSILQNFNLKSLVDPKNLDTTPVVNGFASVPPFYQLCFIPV

[34] = target: T4, Peroxisome proliferator-activated receptor gamma (Homo sapiens, UniProt P37231); experiment: Modulator activity at GAL4-fused human PPARgamma LBD (unknown origin) transfected in African green monkey CV1 cells assessed as receptor transactivation by luciferase reporter gene assay; type: cell-based, CV-1
T4 sequence (P37231 whole entry): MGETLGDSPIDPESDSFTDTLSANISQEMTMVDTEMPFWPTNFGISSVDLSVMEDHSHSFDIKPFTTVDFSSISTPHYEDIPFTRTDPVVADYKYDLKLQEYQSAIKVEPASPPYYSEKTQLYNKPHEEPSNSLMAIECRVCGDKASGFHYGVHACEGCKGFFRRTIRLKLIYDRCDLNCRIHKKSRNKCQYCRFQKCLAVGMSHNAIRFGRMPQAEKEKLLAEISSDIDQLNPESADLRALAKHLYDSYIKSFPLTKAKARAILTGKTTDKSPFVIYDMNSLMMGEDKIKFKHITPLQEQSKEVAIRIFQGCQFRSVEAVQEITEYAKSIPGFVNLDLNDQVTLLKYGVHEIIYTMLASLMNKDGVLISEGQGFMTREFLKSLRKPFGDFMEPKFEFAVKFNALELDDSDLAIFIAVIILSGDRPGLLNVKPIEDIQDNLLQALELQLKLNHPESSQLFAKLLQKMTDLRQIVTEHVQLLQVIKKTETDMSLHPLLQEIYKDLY

[35] = Protein binding in human plasma; type: ADME, cell-free; conditions: read-out: PPB
[36] = Half life in CD-1 mouse at 1 mg/kg, iv; type: ADME, organism-based; conditions: in vivo
[37] = Clearance in CD-1 mouse at 3 mg/kg, iv; type: ADME, organism-based; conditions: in vivo
[38] = target: T5, Peroxisome proliferator-activated receptor delta (Homo sapiens, UniProt Q03181)
T5 sequence (Q03181 whole entry): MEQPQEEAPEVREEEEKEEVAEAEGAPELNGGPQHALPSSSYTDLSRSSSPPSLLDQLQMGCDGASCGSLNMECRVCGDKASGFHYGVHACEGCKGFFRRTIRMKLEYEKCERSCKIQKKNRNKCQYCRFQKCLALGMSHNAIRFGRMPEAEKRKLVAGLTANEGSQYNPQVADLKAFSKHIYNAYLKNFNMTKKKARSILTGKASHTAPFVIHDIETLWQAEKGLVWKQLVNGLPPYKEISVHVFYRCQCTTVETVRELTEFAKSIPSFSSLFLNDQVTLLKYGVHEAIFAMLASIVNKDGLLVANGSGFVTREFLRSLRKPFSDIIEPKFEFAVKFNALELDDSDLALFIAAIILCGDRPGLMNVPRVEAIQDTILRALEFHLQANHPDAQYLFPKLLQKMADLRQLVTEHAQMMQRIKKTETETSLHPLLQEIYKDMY
Description: Modulator activity at GAL4-fused human PPARdelta LBD (128 to residue at C-terminus) transfected in African green monkey CV1 cells assessed as receptor transactivation by luciferase reporter gene assay

[39] = Permeability across basolateral to apical side in human Caco2 cells; type: ADME, cell-based; conditions: Caco-2, read-out: permeability
[40] = Oral bioavailability in cynomolgus monkey at 10 mg/kg; type: ADME, organism-based, Macaca fascicularis; conditions: in vivo
[41] = Half life in Wistar rat at 3 mg/kg, po; type: ADME, organism-based; conditions: in vivo
[42] = AUC in Wistar rat at 3 mg/kg, po; type: ADME, organism-based; design: dose 3 mg/kg; conditions: in vivo
[43] = target: T1, Peroxisome proliferator-activated receptor delta (Mus musculus); experiment: Modulator activity at PPARdelta in […] primary myoblasts derived from DMD patient assessed as upregulation of PDK4 gene expression at 0.4 nM measured after 48 hrs; type: tissue-based; conditions: Primary myotube, filed as modulator
[44] = Selectivity index, ratio of EC50 for transactivation of GAL4-fused PPARalpha LBD (unknown origin) transfected in CV1 cells to EC50 for transactivation of GAL4-fused human PPARdelta LBD (128 to residue at C-terminus) transfected in African green monkey CV1 cells by luciferase reporter gene assay

SMILES: Cc1cnc(-c2ccc(OC(F)(F)F)cc2)n1Cc1ccccc1OCCC[C@@H](C)CC(=O)O
- AUC [1]: 3840 ng·h/mL
- AUC [2]: 1590 ng·h/mL
- half-life [3]: 6.1 h
- AUC [4]: 630 ng·h/mL
- Activity [5]: 36%
- t1/2 [6]: 6.1 h
- half-life [7]: 3.3 h
- fraction unbound [8]: 0.005
- half-life [9]: 3.4 h
- AUC [10]: 1250 ng·h/mL
- Cmax [11]: 510 ng/mL
- bioavailability [12]: 90%
- Activity [13]: 32%
- bioavailability [14]: 42%
- Activity [15]: 98%
- EC50 [16]: 0.01 µM
- IC50 [17]: ≥ 10 µM
- EC50 [18]: 6.9 µM
- AUC [19]: 503 ng·h/mL
- Vd [20]: 5.8 L/kg
- Activity [21]: Active
- fraction unbound [22]: 0.004
- EC50 [23]: 0.0079 µM
- Activity [24]: Non-Toxic
- Cmax [25]: 1090 ng/mL
- Vd [26]: 1.8 L/kg
- Vdss [27]: 3.2 L/kg
- half-life [28]: 7.3 h
- clearance [29]: 10 mL/min/kg
- Cmax [30]: 1660 ng/mL
- AUC [31]: 8400 ng·h/mL
- Papp A→B [32]: 36 ×10⁻⁶ cm/s
- inhibition at 10 µM [33]: 56%
- EC50 [34]: > 10 µM
- fraction unbound [35]: 0.001
- half-life [36]: 2.7 h
- clearance [37]: 25 mL/min/kg
- EC50 [38]: 0.0004 µM
- Papp B→A [39]: 41 ×10⁻⁶ cm/s
- bioavailability [40]: 13%
- half-life [41]: 4.6 h
- AUC [42]: 4920 ng·h/mL
- Activity [43]: 98%

- half-life [7]: 0.2 h
- AUC [10]: 220 ng·h/mL
- EC50 [18]: 16.8 µM
- EC50 [34]: > 10 µM
- clearance [37]: 225 mL/min/kg
- EC50 [38]: 0.0084 µM
SMILES: C/C(=C\COc1ccccc1Cc1c(C)nnn1-c1ccc(-c2ccco2)cc1)CCC(=O)O
- Ratio EC50 [44]: >1000

- EC50 [18]: > 100 µM
- EC50 [34]: > 10 µM
SMILES: Cc1cnc(-c2ccc(F)cc2)n1Cc1ccccc1OCCC[C@@H](C)CC(=O)O

- EC50 [18]: 69 µM
- AUC [19]: 440 ng·h/mL
- EC50 [34]: > 10 µM
- half-life [36]: 4.3 h
SMILES: Cc1cnc(-c2ccc(Cl)c(F)c2)n1Cc1ccccc1OCCC[C@@H](C)CC(=O)O

Reference: ChEMBL document CHEMBL4715826, “Selective PPARδ Modulators Improve Mitochondrial Function: Potential Treatment for Duchenne Muscular Dystrophy (DMD)” (ACS Med Chem Lett, 2018)
